Patent US11447529B2, “Microcin MccY, and preparation method and use thereof” (South China Agricultural University, priority 2021, dated 2022)

Experiments:
Experiment in all cases: Bacteriostatic ring test on double-layer agar
Format in all cases: cell-based
[1] = tested on: Salmonella enteritidis (strain name: CVCC3377); settings: 50 μL filtrate (combination 25 uL + 25 uL), double-layer LB agar, 37° C., 18 h; FIG. 1
Protocol: (§1) Salmonella Pullorum (strain name: CVCC1800), Salmonella enteritidis (strain name: CVCC3377) and Salmonella typhimurium (strain name: ATCC14028) were respectively resuscitated in a LB agar plate (with the formula as shown in Table 4) (cultured in a 5% CO2 incubator at 37° C. for 16 h). Single colonies were picked and subjected to shaking culture until OD600=0.8. The bacterial solution was inoculated into a soft agar medium containing 5% LB (with the formula as shown in Table 5) at about 42° C. in a proportion of 1:1,000, and then spread onto a LB agar plate to form an upper and lower double-layer agar medium. 30 min later, after the soft agar was cooled and solidified, a mixed solution of 50 μL of the filtrate obtained in Example 1 (the Microcin MccY), 50 μL of the filtrate obtained in Example 2, 50 μL of the filtrate obtained in Example 3 (the Microcin MccJ25), 25 uL of the filtrate obtained in Example 1 (the Microcin MccY) and 25 uL of the filtrate obtained in Example 3 (the Microcin MccJ25) was taken and added into the upper and lower double-layer agar medium containing Salmonella Pullorum, Salmonella enteritidis and Salmonella typhimurium. The upper and lower double-layer agar medium was then placed into a 5% CO2 bacterial incubator at 37° C. for static culture for 18 h, and then observed for a bacteriostatic ring.

[2] = tested on: Salmonella kentucky (strain name: BNCC239114); settings: 50 μL filtrate (combination 25 uL + 25 uL), double-layer LB agar, 37° C., 18 h; FIG. 2
Protocol: (§2) Salmonella kentucky (strain name: BNCC239114), Salmonella Infantis (strain name: CMCC50041) and Salmonella london (strain name: CVCC2206) were respectively resuscitated in a LB agar plate (with the formula as shown in Table 4) (cultured in a 5% CO2 incubator at 37° C. for 16 h). Single colonies were picked and subjected to shaking culture until OD600=0.8. The bacterial solution was inoculated into a soft agar medium containing 5% LB (with the formula as shown in Table 5) at about 42° C. in a proportion of 1:1,000, and then spread onto a LB agar plate to form an upper and lower double-layer agar medium. 30 min later, after the soft agar was cooled and solidified, a mixed solution of 50 μL of the filtrate obtained in Example 1 (the Microcin MccY), 50 μL of the filtrate obtained in Example 2, 50 μL of the filtrate obtained in Example 3 (the Microcin MccJ25), 25 uL of the filtrate obtained in Example 1 (the Microcin MccY) and 25 uL of the filtrate obtained in Example 3 (the Microcin MccJ25) was taken and added into the upper and lower double-layer agar medium containing […]. The upper and lower double-layer agar medium was then placed into a 5% CO2 bacterial incubator at 37° C. for static culture for 18 h, and then observed for a bacteriostatic ring.

[3] = tested on: Salmonella london (strain name: CVCC2206); settings: 50 μL filtrate (combination 25 uL + 25 uL), double-layer LB agar, 37° C., 18 h; FIG. 2
Protocol: as §2

[4] = tested on: Salmonella Infantis (strain name: CMCC50041); settings: 50 μL filtrate (combination 25 uL + 25 uL), double-layer LB agar, 37° C., 18 h; FIG. 2
Protocol: as §2

[5] = tested on: Salmonella typhimurium (strain name: ATCC14028); settings: 50 μL filtrate (combination 25 uL + 25 uL), double-layer LB agar, 37° C., 18 h; FIG. 1
Protocol: as §1

[6] = tested on: Salmonella Pullorum (strain name: CVCC1800); settings: 50 μL filtrate (combination 25 uL + 25 uL), double-layer LB agar, 37° C., 18 h; FIG. 1
Protocol: as §1

[7] = tested on: Shigella flexneri (strain name: CMCC51572); settings: 50 μL filtrate, double-layer LB agar, 37° C., 18 h; FIG. 3
Protocol: (§3) Shigella flexneri (strain name: CMCC51572) and Shigella sonnei (strain name: CMCC51592) were respectively resuscitated in a LB agar plate (with the formula as shown in Table 4) (cultured in a 5% CO2 incubator at 37° C. for 16 h). Single colonies were picked and subjected to shaking culture until OD600=0.8. The bacterial solution was inoculated into a soft agar medium containing 5% LB (with the formula as shown in Table 5) at about 42° C. in a proportion of 1:1,000, and then spread onto a LB agar plate to form an upper and lower double-layer agar medium. 30 min later, after the soft agar was cooled and solidified, each 50 μL of the filtrate obtained in Example 1 (the Microcin MccY) and methanol were respectively taken and added into the upper and lower double-layer agar medium containing Shigella flexneri and Shigella sonnei (the control group was added with the same amount of the filtrate obtained in Example 2). The upper and lower double-layer agar medium was then placed into a 5% CO2 bacterial incubator at 37° C. for static culture for 18 h, and then observed for a bacteriostatic ring.

[8] = tested on: Shigella sonnei (strain name: CMCC51592); settings: 50 μL filtrate, double-layer LB agar, 37° C., 18 h; FIG. 3
Protocol: as §3

Substance	bacteriostatic effect (bacteriostatic ring) against Salmonella enteritidis [1]	bacteriostatic effect (bacteriostatic ring) against Salmonella kentucky [2]	bacteriostatic effect (bacteriostatic ring) against Salmonella london [3]	bacteriostatic effect (bacteriostatic ring) against Salmonella Infantis [4]	bacteriostatic effect (bacteriostatic ring) against Salmonella typhimurium [5]	bacteriostatic effect (bacteriostatic ring) against Salmonella Pullorum [6]	bacteriostatic effect (bacteriostatic ring) against Shigella flexneri [7]	bacteriostatic effect (bacteriostatic ring) against Shigella sonnei [8]
MccJ25: Known Microcin MccJ25 (SEQ ID NO.10); tested as filtrate expressed by pET-28a(+)-MccJ25-containing BL21(DE3) bacteria (GGAGHVPEYFVGIGTPISFYG; Primer) [reference compound]	inhibitory effect	no inhibitory effect	no inhibitory effect	no inhibitory effect				
MccY: Microcin with amino acid sequence GGRGHIAEYFSGPITQVSFYG (SEQ ID NO.1); tested as filtrate expressed by pET-28a(+)-MccY-containing BL21(DE3) bacteria (Primer)		inhibitory effects	inhibitory effects	inhibitory effects	inhibitory effects	inhibitory effects	not sensitive	sensitive
